What was measured:
[1] = tested on: biotin-induced antibody release, U2OS clone #7 cells; assay: High-throughput RUSH screen: biotin-induced cytoplasmic GFP signal decay (antibody release), U2OS clone #7; assay type: cell-based, human
Procedure: FIGS. 4A-4C show the high-throughput screening of chemical compound libraries for the identification of modulators of protein secretion. […] U2OS clone #7 is plated in 384-well plates and incubated for 24 h before treatment with each compound of the Prestwick, ICCB Known Bioactives, or Autophagy Compound Library at 2 concentrations, low and high (with a 10-fold difference). […] The results of the Prestwick library screening at the low drug concentration are plotted. Brefeldin A was used as a positive control of the inhibition of secretion. The compounds causing a cytoplasmic GFP intensity below that observed for biotin-only treated cells are potential enhancers of protein secretion.
U2OS cells were transfected with the streptavidin-KDEL plasmid using Lipofectamine 2000 (Thermo Fisher Scientific) and selected in medium supplemented with G418 (400 μg/mL, Gibco-Invitrogen) for 2 weeks. Limiting dilution in 96-well plates was used for single cell isolation from the selected pool. Clones were amplified and selected based on streptavidin immunofluorescence. Clone #BD6 showing the highest streptavidin expression was further expanded in medium supplemented with G418 (200 μg/mL) and transfected with the anti-PD-L1 IgG RUSH plasmid using Lipofectamine 2000 and selected in medium supplemented with G418 (200 μg/mL) and hygromycin (100 μg/mL, Santa Cruz Biotechnology) for 2 weeks. Limiting dilution in 96-well plates was used for single cell isolation from clone #BD6-derived selected pool. Clones were amplified and selected based on GFP fluorescence and clone #7 was selected for further characterization and screening campaigns.
U2OS clone #7 cells were seeded in black 384-well imaging plates (Greiner bio one), 2,000 cells/well, and incubated for 24 h at 37° C. in a humidified incubator with 5% CO2. Cells were treated on the next day with the compounds from either the Prestwick library at […], the ICCB Known Bioactives library at 1/100^e or 1/1000^e, or the autophagy compound library at 10 μM or 1 μM for 4 h. […] Cells were then fixed as described above and processed for subsequent automated image acquisition using a robot-assisted IXM XL BioImager (Molecular Devices, Sunnyvale, CA, USA) equipped with a Sola light source (Lumencor, Beaverton, OR, USA), adapted excitation and emission filters (Semrock) a 16-bit monochrome sCMOS PCO.edge 5.5 camera (PCO, Kelheim, Germany). A 20× PlanAPO objective (Nikon, Tokyo, Japan) was used to acquire a minimum of 4 view fields in each well. The acquired images were processed using the open-access R software (https://www.r-project.org) with the help of freely available packages EBImage (available on the Bioconductor repository https://www.bioconductor.org), and RBioFormats (https://github.com/aoles/RBioFormats), and the custom packages MetaxpR (https://github.com/asauvat/MetaxpR) and MorphR (https://github.com/kroemerlab/MorphR). Nuclei were first detected using Hoechst 33342 signal and used as a marker to detect cytoplasmic areas based on GFP signal, allowing for the evaluation of cytoplasmic GFP intensity. Data were thereafter extracted and statistically evaluated using R (https://www.r-project.org). Data were normalized using negative and positive controls, reduced and transformed into a Z-score. The experiments were repeated manually at low scale with selected drugs to confirm their effects on secretion, in this second set of assays, U2OS clone #7 cells incubated with secretion inhibitors were fixed and stained with Hoechst as described above for imaging and viability determination based on cell counts.
We next sought to use clone #7 in screening campaigns for the identification of drugs capable of enhancing or inhibiting antibody secretion. […] Cell counting was facilitated by nuclear counterstaining with Hoechst 33324 in order to assess viability and distinguish drug effects on the secretion kinetics from direct cytotoxicity and select relevant drugs for further characterization. […]

[2] = tested on: D3/D2 receptor; details: cited from earlier work
[3] = tested on: D1 receptors; details: cited from earlier work
[4] = tested on: GFP-tagged RUSH antibody trafficking, U2OS clone #7 cells; assay: Time lapse / fluorescence microscopy of GFP-tagged antibody trafficking in clone #7; assay type: cell-based, human
Excerpt: (§1) FIGS. 2A-2F show characterization of the anti-PD-L1 antibody RUSH system. […] Molecular mass standards (in kDa) are indicated on the left in panel FIG. 2D. The structures of the proteins detected by immunoblot are indicated based on the scheme shown in FIG. 1B and include antibody heavy and light chains, GFP, SBP, and a linker with a furin cleavage site. The truncated shape at the antibody C-terminus represents linker residues left after cleavage by furin. Results are representative of at least 3 independent experiments.
U2OS clone #7 cells were seeded in black 96-well imaging plates (Greiner bio one, Kremsmünster, Austria). After 24 h, the medium was removed, cells were rinsed with 37° C. pre-heated PBS and fixed in PBS supplemented with 4% paraformaldehyde (PFA, Sigma) and 1 μg/mL Hoechst (Life Technologies, Carlsbad, CA, USA) for 20 min under agitation at room temperature (RT). Cells were rinsed with PBS before addition of a 5% FBS/0.3% Triton X-100/PBS permeabilizing solution for 30 min under agitation at RT. Cells were rinsed with PBS and incubated overnight under agitation at 4° C. with the primary antibody in 1% BSA/PBS. Cells were washed with PBS and incubated for 45 min under agitation at RT with the secondary antibody in 1% BSA/PBS. Finally, cells were washed, and processed for image acquisition using an IXM XL BioImager (Molecular Devices, Sunnyvale, CA).

[5] = tested on: RUSH antibody release and furin processing, U2OS clone #7 cells; assay: Western blot of cell lysates and concentrated supernatants of clone #7; assay type: cell-based, human; details: 40 μM biotin, 4 h; FIG. 2C
Excerpt: as §1
U2OS clone #7 cells were seeded in T-175 flasks and kept for 24 h at 37° C. in a humidified incubator with 5% CO2. […] At the end of the incubation time, cells were harvested and lysed in RIPA buffer (Thermo Fisher Scientific) supplemented with protease and phosphatase inhibitors (Roche, Basel, Switzerland). Additionally, cell culture supernatants were collected and concentrated ~100-fold in Amicon 50 kDa filter unit (Sigma) according to the manufacturer's instructions. Cell lysate and concentrated supernatant protein concentrations were determined using the BCA™ protein assay kit (Thermo Fisher Scientific). […] The membranes were then washed 3 times for 5 min with 0.01% Tween-20/TBS and peroxidase activity was evaluated with Amersham ECL Primer Western Blotting Detection Reagent (GE Healthcare, Little Chalfont, UK) on ImageQuant™ LAS4000 (GE Healthcare).

[6] = tested on: human PD-L1 (CHO-PDL1 cells); assay: Flow cytometry binding to PD-L1-expressing CHO cells; details: FACS
Excerpt: (§2) FIGS. 3A-F show the characterization of the binding capacity of the anti-PD-L1 RUSH antibody released through the biotin-activated RUSH system (FIGS. 3A, 3C, and FIG. 3E) Schematic representation of the antibody binding to PD-L1^pos cells and detection by flow cytometry. […] Dark grey, binding to PD-L1^pos CHO cells (CHO-PDL1); light grey, binding to PD-L1^neg parental CHO cells (CHO-K1). Antibody binding is detected by means of an indirect immunofluorescence assay with a secondary anti-Fc APC conjugated or by direct measurement of GFP fluorescence.
(§3) Human osteosarcoma U2OS cells obtained from the Kroemer lab were maintained at 37° C. in a humidified incubator with 5% CO2 in Dulbecco's Modified Eagle Medium (DMEM) supplemented with 10% Fetal Bovine Serum (FBS), 1% penicillin-streptomycin and 1% HEPES (Gibco, Carlsbad, CA). CHO-K1 (CCL-61) cells were obtained from the ATCC and cultured at 37° C. in a humidified incubator with 5% CO2 in Nutrient Mixture F-12 Ham's (Sigma, Saint-Louis, MO) supplemented with 10% FBS and 2 mM L-Glutamine (Gibco). PD-L1-expressing CHO cells were cultured in similar conditions in medium supplemented with 7.5 μg/mL puromycin (Gibco). The Prestwick, the BML-2840 ICCB Known Bioactives and the Autophagy Compounds libraries were purchased from Prestwick Chemicals (Illkirch, France), Enzo Life Sciences (Farmingdale, NY), and TargetMol (Boston, MA), respectively. […]

[7] = tested on: CHO-K1 cells; assay: Flow cytometry binding to PD-L1neg parental CHO cells; details: FACS
Excerpt: as §2, §3

For CCCN(CCC)CCc1cccc2c1CC(=O)N2 [ropinirole, 4-[2-(dipropylamino)ethyl]-1,3-dihydroindol-2-one], which “secretion activator at both low and high concentration (consistently decreased fluorescent signal, among 20 best activators)” value ([1]; Prestwick library, low and high concentration, 4 h compound, then 40 μM biotin 1 h) is on record?
The value was “fulfilled these criteria”.

And the “decrease of intracytoplasmic GFP fluorescence signal (biotin-stimulated RUSH system)” value ([1]; screening campaigns, summary)?
The value was “consistently decreased intracytoplasmic GFP fluorescence”.

What about the D3/D2 receptor agonism [2] of the same molecule?
Its D3/D2 receptor agonism is “potent D3/D2 receptor agonist”.

And the “affinity for D1 receptors” value [3]?
Its value is “no affinity”.

For O=C(O)CCCC[C@@H]1SC[C@@H]2NC(=O)N[C@@H]21 [biotin], which “time of relocation of the GFP signal to the Golgi apparatus” value ([4]; 40 μM biotin) is on record?
The value was 40 to 120 min.

What about the “time to complete cytoplasmic GFP signal decay” value ([4]; 40 μM biotin) of the same molecule?
Its value is ≤ 4 h.

What about the GFP/streptavidin co-localization ([4]; 4 h after addition of biotin, FIG. 2B) of the same molecule?
The GFP/streptavidin co-localization was “lost 4 h after addition of biotin”.

And the “Pearson's correlation coefficient (PCC), hook / GFP-tagged antibody colocalization” value ([4]; in the presence of biotin, 4 h, FIG. 2B)?
Its value is 0.29.

And the “Western blot signal intensity in cell lysate” value [5]?
The value was “intensity of the signal was lower”.

What does the source list for “anti-PD-L1: reference anti-human PD-L1 antibody produced from published Atezolizumab heavy and light chains sequences”?
binding to CHO-PDL1 cells [6]: binding to PD-L1^pos (CHO-PDL1); binding to CHO-K1 cells [7]: not PD-L1^neg CHO (CHO-K1) cells
